Results: BindingDB's records for doi:10.1016/s0960-894x(99)00335-2 (Merck Research Laboratories, 1999)

Test: Concentration required for inhibition of serine/threonine protein phosphatase calcineurin (CAN)

IC50 [nM]	SMILES
14	CC[C@@H]1/C=C(\C)C[C@H](C)C[C@H](OC)[C@H]2O[C@@](O)(C(=O)C(=O)N3CCCC[C@H]3C(=O)O[C@H](/C(C)=C/[C@@H]3CC[C@@H](OCCCc4ccccc4)[C@H](OC)C3)[C@H](C)[C@@H](O)CC1=O)[C@H](C)C[C@@H]2OC [C32-O-Phenalkyl ether derivative of Ascomycin]
7.2	CC[C@@H]1/C=C(\C)C[C@H](C)C[C@H](OC)[C@H]2O[C@@](O)(C(=O)C(=O)N3CCCC[C@H]3C(=O)O[C@H](/C(C)=C/[C@@H]3CC[C@@H](OCCc4ccccc4)[C@H](OC)C3)[C@H](C)[C@@H](O)CC1=O)[C@H](C)C[C@@H]2OC [C32-O-Phenalkyl ether derivative of Ascomycin]
